Laboratory results as given in the NIST ThermoML archive (doi:10.1016/j.tca.2014.07.022).

Assay: xn = mol fraction of the nth substance listed
Conditions: 100 kPa, Liquid; for viscosity: Concentric cylinders viscometry; for mass density: Vibrating tube method

CC(=O)CC(C)C [4-methylpentan-2-one] + CCC(C)O
Conditions | mass density [kg/m3] | viscosity [mPa·s]
293.15 K, x1 = 0.1002 | 805.1 | 2.361
293.15 K, x1 = 0.1905 | 803.8 | 1.802
293.15 K, x1 = 0.2801 | 802.8 | 1.468
293.15 K, x1 = 0.4054 | 801.7 | 1.162
293.15 K, x1 = 0.4891 | 801.2 | 1.001
293.15 K, x1 = 0.6123 | 800.7 | 0.84
293.15 K, x1 = 0.6942 | 800.5 | 0.771
293.15 K, x1 = 0.779 | 800.5 | 0.713
293.15 K, x1 = 0.8747 | 800.5 | 0.646
293.15 K, x1 = 0.9522 | 800.7 | 0.614
293.15 K, x1 = 1 | 800.8 | 0.588
298.15 K, x1 = 0.1002 | 800.9 | 2.041
298.15 K, x1 = 0.1905 | 799.5 | 1.598
298.15 K, x1 = 0.2801 | 798.4 | 1.311
298.15 K, x1 = 0.4054 | 797.2 | 1.053
298.15 K, x1 = 0.4891 | 796.6 | 0.916
298.15 K, x1 = 0.6123 | 796 | 0.776
298.15 K, x1 = 0.6942 | 795.9 | 0.717
298.15 K, x1 = 0.779 | 795.8 | 0.666
298.15 K, x1 = 0.8747 | 795.8 | 0.607
298.15 K, x1 = 0.9522 | 796 | 0.582
298.15 K, x1 = 1 | 796.1 | 0.554
303.15 K, x1 = 0.1002 | 796.4 | 1.762
303.15 K, x1 = 0.1905 | 795 | 1.403
303.15 K, x1 = 0.2801 | 793.9 | 1.173
303.15 K, x1 = 0.4054 | 792.6 | 0.955
303.15 K, x1 = 0.4891 | 792.1 | 0.84
303.15 K, x1 = 0.6123 | 791.5 | 0.716
303.15 K, x1 = 0.6942 | 791.3 | 0.668
303.15 K, x1 = 0.779 | 791.2 | 0.621
303.15 K, x1 = 0.8747 | 791.3 | 0.569
303.15 K, x1 = 0.9522 | 791.4 | 0.545
303.15 K, x1 = 1 | 791.6 | 0.523
308.15 K, x1 = 0.1002 | 792 | 1.531
308.15 K, x1 = 0.1905 | 790.5 | 1.247
308.15 K, x1 = 0.2801 | 789.3 | 1.055
308.15 K, x1 = 0.4054 | 788 | 0.87
308.15 K, x1 = 0.4891 | 787.4 | 0.775
308.15 K, x1 = 0.6123 | 786.7 | 0.664
308.15 K, x1 = 0.6942 | 786.5 | 0.623
308.15 K, x1 = 0.779 | 786.5 | 0.582
308.15 K, x1 = 0.8747 | 786.5 | 0.536
308.15 K, x1 = 0.9522 | 786.7 | 0.513
308.15 K, x1 = 1 | 786.9 | 0.493
313.15 K, x1 = 0.1002 | 787.6 | 1.341
313.15 K, x1 = 0.1905 | 786 | 1.1
313.15 K, x1 = 0.2801 | 784.7 | 0.94
313.15 K, x1 = 0.4054 | 783.4 | 0.787
313.15 K, x1 = 0.4891 | 782.7 | 0.708
313.15 K, x1 = 0.6123 | 782.1 | 0.621
313.15 K, x1 = 0.6942 | 781.9 | 0.58
313.15 K, x1 = 0.779 | 781.8 | 0.544
313.15 K, x1 = 0.8747 | 781.9 | 0.505
313.15 K, x1 = 0.9522 | 782.1 | 0.485
313.15 K, x1 = 1 | 782.3 | 0.463
318.15 K, x1 = 0.1002 | 783 | 1.181
318.15 K, x1 = 0.1905 | 781.3 | 0.984
318.15 K, x1 = 0.2801 | 780 | 0.847
318.15 K, x1 = 0.4054 | 778.6 | 0.715
318.15 K, x1 = 0.4891 | 777.9 | 0.649
318.15 K, x1 = 0.6123 | 777.3 | 0.575
318.15 K, x1 = 0.6942 | 777.1 | 0.535
318.15 K, x1 = 0.779 | 777 | 0.505
318.15 K, x1 = 0.8747 | 777.1 | 0.477
318.15 K, x1 = 0.9522 | 777.4 | 0.458
318.15 K, x1 = 1 | 777.6 | 0.437
323.15 K, x1 = 0.1002 | 778.3 | 1.035
323.15 K, x1 = 0.1905 | 776.6 | 0.88
323.15 K, x1 = 0.2801 | 775.3 | 0.772
323.15 K, x1 = 0.4054 | 773.8 | 0.662
323.15 K, x1 = 0.4891 | 773.2 | 0.603
323.15 K, x1 = 0.6123 | 772.6 | 0.535
323.15 K, x1 = 0.6942 | 772.4 | 0.501
323.15 K, x1 = 0.779 | 772.3 | 0.471
323.15 K, x1 = 0.8747 | 772.5 | 0.449
323.15 K, x1 = 0.9522 | 772.7 | 0.434
323.15 K, x1 = 1 | 773 | 0.41
